Legend:
rat MAPCs = assay: Cytokine mediated differentiation of rat MAPCs, Q-RT-PCR and cell survival; assay type: cell-based; conditions: activin-A, BMP4 and cyclopamine or anti-SHH Ab withdrawn after d6, cells then maintained with the factor
Method: For Q-RT-PCR reactions described herein, the primer sequences are presented in Tables 3-5 and the following protocols were used: RNA was extracted from the cells with the aid of the RNeasy Mini Kit (Qiagen; Valencia Calif.), followed by a DNase Treatment with DNA-Free™ (Ambion, Austin, Tex.). The RNA was reverse transcribed with TaqMan (Applied Biosystems, Foster City, Calif.; Step 1 (Incubation): 25° C., 10 min; Step 2 (RT): 48° C., 30 min; Step 3 (RT Inactivation): 95° C., 10 min).
Following reverse transcription, Quantitative Real Time PCR (Q-RT-PCR) was performed as follows: Step 1: 50° C., 2 min (Incubation); Step 2: 95° C., 10 min (Taq activation); Step 3: 95° C., 15 sec (Denaturation) followed by 60° C., 1 min (Extension) and repeat for 40 cycles; Step 4: 95° C., 15 sec (Dissociation); Step 5: 60° C., 20 sec (Melting curve); Step 6: 95° C., 15 sec.
In an initial series of studies, the effect of cell density (about 10^4-10^5 cells/cm^2), ECM component (fibronectin, collagen, matrigel) and different concentrations (10-100 ng/mL) of bFGF (10-100 ng/mL), FGF2 (10-100 ng/mL), Activin A (e.g., about 10 ng/mL to about 100 ng/mL), BMP4 (e.g., about 10 ng/mL to about 50 ng/mL), retinoic acid (about 10^−6M), EGF (e.g., about 10 to about 100 ng/mL), FGF10 (e.g., about 50 to about 150 ng/mL, including about 100 ng/mL), HGF (e.g., about 10 to about 100 ng/mL), GDF11 (e.g., about 50 to abut 150 ng/mL), cyclopamine (e.g., about 10 μM), anti-SHH antibody (Ab; e.g., about 10 μg/mL), nicotinamide (e.g., 5 μM to about 50 μM, including about 10 μM), exendin 4 (about 5 nM to about 50 nM, including about 10 nM), betacellulin (e.g., about 50 to abut 150 ng/mL) alone or in combinations of 2 or 3 and in different temporal sequences, on the induction of transcription factors, insulin, glucagon and somatostatin expression levels after 6, 12 and 18 days using Q-RT-PCR was determined.
Subsequent addition of factors believed to play a role in further proliferation and differentiation from pancreas-committed cells to mature endocrine pancreas, including EGF (e.g., about 50 ng/mL), HGF (e.g., about 50 ng/mL) and FGF10 (e.g., about 100 ng/mL), either alone or in combination was tested. […] Further optimization was obtained by adjusting the duration of the different steps along the differentiation course, as well addition of β-cellulin (50 ng/mL).

murine MAPCs = conditions: about 10 ng/mL LIF added to PDGF-BB and EGF culture; cited from earlier work
human MAPCs = conditions: about 10 ng/mL LIF; cited from earlier work

Row | Substance | cell survival (rat MAPCs) | cell growth (murine MAPCs) | short-term cell growth (cell doubling time till 25 cell doublings, Oct 4 expression) (human MAPCs)
1 | EGF: epidermal growth factor | significantly better |  | 
2 | HGF: mitogenic protein used at about 50 ng/mL | significantly better |  | 
3 | LIF: leukemia inhibitory factor, culture supplement |  | significantly enhanced cell growth | did not affect short-term cell growth

From patent publication US8409859B2, “Differentiation of non-embryonic stem cells to cells having a pancreatic phenotype” (Regents of the University of Minnesota, priority 2005, dated 2013)
